Consider 6 compounds from ChEMBL document CHEMBL1126118, “Synthesis and biological activity of ketomethylene pseudopeptide analogues as thrombin inhibitors” (J Med Chem, 1992).

The species named for experiment [1] is Homo sapiens. Kind of experiment: Concentration required to double the human alpha-thrombin induced clotting time of human plasma. The experiment is classed as functional.
In another experiment the target is Prothrombin (Homo sapiens, UniProt P00734). Briefly: In vitro inhibitory activity against thrombin.
For a further experiment, the target named is Kallikrein-1 (Homo sapiens, UniProt P06870). Kind of experiment: In vitro inhibitory activity against Kallikrein.
Kallikrein-1, sequence (P06870 whole entry): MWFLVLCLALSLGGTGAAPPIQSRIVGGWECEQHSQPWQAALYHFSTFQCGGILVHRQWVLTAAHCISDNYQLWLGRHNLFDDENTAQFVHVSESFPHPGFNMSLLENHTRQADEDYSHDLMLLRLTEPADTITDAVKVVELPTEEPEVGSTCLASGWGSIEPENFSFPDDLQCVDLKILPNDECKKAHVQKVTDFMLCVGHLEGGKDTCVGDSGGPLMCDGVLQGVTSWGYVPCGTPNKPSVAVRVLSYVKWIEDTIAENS
The species named for experiment [2] is Homo sapiens. Kind of experiment: Concentration required to double the activated partial thromboplastin time of human plasma was measured. The format is functional.
A further experiment concerns the target Plasminogen (Rattus norvegicus, UniProt Q01177). Briefly: In vitro inhibitory activity against plasmin.
Experiment [3] concerns the target Urokinase-type plasminogen activator (Homo sapiens, UniProt P00749). Briefly: In vitro inhibitory activity against Urokinase-type plasminogen activator.
The target in a further experiment is Coagulation factor X (Homo sapiens, UniProt P00742). Briefly: In vitro inhibitory activity against Coagulation factor X.
Coagulation factor X, sequence (P00742 41-179 limits assumed): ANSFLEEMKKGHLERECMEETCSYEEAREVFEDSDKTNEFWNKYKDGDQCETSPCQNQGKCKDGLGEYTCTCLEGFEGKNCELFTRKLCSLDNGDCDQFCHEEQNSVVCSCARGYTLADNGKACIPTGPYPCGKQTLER
Coagulation factor X, sequence (P00742 235-488 limits assumed): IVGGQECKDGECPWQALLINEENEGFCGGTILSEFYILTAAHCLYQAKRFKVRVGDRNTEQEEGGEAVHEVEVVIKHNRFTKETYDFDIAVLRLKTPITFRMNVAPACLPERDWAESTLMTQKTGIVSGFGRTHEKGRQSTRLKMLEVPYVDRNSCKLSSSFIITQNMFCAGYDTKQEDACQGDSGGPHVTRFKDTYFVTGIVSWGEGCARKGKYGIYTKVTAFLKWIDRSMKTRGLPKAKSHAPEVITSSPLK

Plasminogen, sequence (Q01177 97-581 limits assumed): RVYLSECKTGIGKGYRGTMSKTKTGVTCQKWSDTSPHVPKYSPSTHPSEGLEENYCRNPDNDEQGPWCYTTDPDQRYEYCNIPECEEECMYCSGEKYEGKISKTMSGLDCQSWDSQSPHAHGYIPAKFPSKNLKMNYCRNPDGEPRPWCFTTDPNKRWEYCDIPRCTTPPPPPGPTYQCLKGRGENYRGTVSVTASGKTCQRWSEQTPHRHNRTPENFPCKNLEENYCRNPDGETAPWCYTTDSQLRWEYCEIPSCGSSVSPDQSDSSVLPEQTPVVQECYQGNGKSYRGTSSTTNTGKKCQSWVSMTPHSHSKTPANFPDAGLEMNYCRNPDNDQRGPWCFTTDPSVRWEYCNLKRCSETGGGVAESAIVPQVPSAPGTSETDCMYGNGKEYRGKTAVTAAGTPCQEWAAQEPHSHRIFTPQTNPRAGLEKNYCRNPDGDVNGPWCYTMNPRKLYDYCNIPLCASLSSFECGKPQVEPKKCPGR
Plasminogen, sequence (Q01177 582-812 limits assumed): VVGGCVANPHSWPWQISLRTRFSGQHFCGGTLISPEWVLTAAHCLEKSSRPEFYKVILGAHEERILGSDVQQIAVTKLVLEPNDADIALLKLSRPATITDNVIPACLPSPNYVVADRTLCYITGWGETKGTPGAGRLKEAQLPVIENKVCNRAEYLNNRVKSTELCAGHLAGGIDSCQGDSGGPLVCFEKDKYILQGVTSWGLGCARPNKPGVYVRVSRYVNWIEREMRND

The compound `NC(N)=NCCCC(NC(=O)[C@@H]1CCCN1C(=O)[C@H](N)Cc1ccccc1)C(=O)CCC(=O)N1CCCCC1` (stereo partly specified) returned a TT in the experiment listed under Homo sapiens [1] of 4.9 µM.
`NC(N)=NCCCC(NC(=O)[C@@H]1CCCN1C(=O)[C@H](N)Cc1ccc2ccccc2c1)C(=O)CCC(=O)N1CCCCC1` (stereo partly specified) had a Ki at Prothrombin of 2.28 µM.
`NC(N)=NCCCC(NC(=O)[C@@H]1CCCN1C(=O)[C@H](N)C(c1ccccc1)c1ccccc1)C(=O)CCC(=O)N1CCCCC1.O=C(O)C(F)(F)F.O=C(O)C(F)(F)F` (stereo partly specified): the Ki at Kallikrein-1 is 199 µM; at Prothrombin, 0.2 µM; at Plasminogen, 157 µM; in experiment [3], 494 µM; at Coagulation factor X, 149 µM. For the same compound, the TT in the experiment listed under Homo sapiens [1] worked out at 0.65 µM. In the experiment filed under Homo sapiens [2], this compound gave an APTT of 8 µM.
The compound `NC(N)=NCCCC(NC(=O)[C@@H]1CCCN1C(=O)[C@@H](N)C(c1ccccc1)c1ccccc1)C(=O)CCC(=O)N1CCCCC1.O=C(O)C(F)(F)F.O=C(O)C(F)(F)F` (stereo partly specified) returned a TT in the experiment filed under Homo sapiens [1] of 7.5 µM. Also, the Ki on Prothrombin is 1.7 µM. The compound also showed an APTT in the experiment filed under Homo sapiens [2] of 100 µM.
`NC(N)=NCCCC(NC(=O)[C@@H]1CCCN1C(=O)C(N)Cc1ccc2ccccc2c1)C(=O)CCC(=O)N1CCCCC1.O=C(O)C(F)(F)F.O=C(O)C(F)(F)F` (stereo partly specified) yielded a TT in the experiment filed under Homo sapiens [1] of 90 µM. Besides, the Ki at Prothrombin amounted to 11.6 µM.
The compound `NC(N)=NCCCC(NC(=O)[C@@H]1CCCN1C(=O)C(N)C(c1ccccc1)c1ccccc1)C(=O)CCC(=O)N1CCCCC1.O=C(O)C(F)(F)F.O=C(O)C(F)(F)F` (stereo partly specified) came in with an inhibition constant (Ki) on Prothrombin of 0.6 µM. This compound had an APTT in the experiment filed under Homo sapiens [2] of 45 µM.
